System: painful stretchings induced by acetic acid
Test: acetic acid induced stretching (analgesic effect)
Conditions: 100 mg/kg oral, 0.7% acetic acid i.p., mice
Method: Each sample was orally administrated in the dosage of 100 mg/kg before injection of acetic acid.

Compound | Analgesic (percentage diminution of times of painful stretchings) [%]
CCCCOc1ccc(C(=O)c2c(C)cc(C)cc2C)cc1 [compound 94] | 15.8
CCCCCCc1ccc(C(=O)C(=O)c2ccccc2)cc1 [compound 56] | 20.5
CCCCc1ccc(C(=O)c2ccc(Cl)cc2)cc1 [compound 64] | 6.6

System: not listed separately
Test: in vivo
Conditions: mouse, po
Method: Each sample was dissolved in olive oil or dispersed in 1% Tween 20 aqueous solution.

Compound | LD50 at 72 h [mg/kg]
CCCCOc1ccc(C(=O)c2c(C)cc(C)cc2C)cc1 [compound 94] | 500
CCCCCCCCc1ccc(C(=O)c2ccc(I)cc2)cc1 [compound 164] | > 10000
CCCCCCc1ccc(C(=O)C(=O)c2ccccc2)cc1 [compound 56] | 10000
CCCCCCCCc1ccc(C(=O)c2ccc(F)cc2)cc1 [compound 129] | > 10000
CCCc1ccc(C(=O)c2ccccc2Br)cc1 [compound 142] | 1500
Cc1cc(C)c(C(=O)c2cccc(F)c2)c(C)c1 [compound 125] | 1000
Cc1cc(C)c(C(=O)c2ccc(I)cc2)c(C)c1 [compound 166] | 5000
CCCCc1ccc(C(=O)c2ccc(Cl)cc2)cc1 [compound 64] | 3000
CCCCc1ccc(C(=O)c2ccc(F)cc2)cc1 [compound 127] | 5000
CCCCCCCCc1ccc(C(=O)c2ccccc2I)cc1 [compound 157] | > 10000
CCCCCCc1ccc(C(=O)c2ccc(C)cc2)cc1 [compound 36] | > 10000
Cc1cc(C)c(C(=O)c2ccc(F)cc2)c(C)c1 [compound 131] | 2000
Cc1cc(C)c(C(=O)c2cccc(I)c2)c(C)c1 [compound 163] | 1500
CCCCc1ccc(C(=O)c2ccccc2I)cc1 [compound 155] | > 10000
CCCCCCCCCCc1ccc(C(=O)Cc2ccccc2)cc1 [compound 50] | > 10000
Cc1ccc(C(=O)c2cccc(Br)c2)c(C)c1 [compound 149] | 500
CCCc1ccc(C(=O)c2ccc(Br)cc2)cc1 [compound 150] | 2000
Cc1cc(C)c(C(=O)c2ccc(Br)cc2)c(C)c1 [compound 153] | 1500
CCCc1ccc(C(=O)c2ccccc2I)cc1 [compound 154] | > 10000
CCCCCc1ccc(C(=O)c2ccc(F)cc2)cc1 [compound 128] | 4000
CCCCc1ccc(C(=O)c2cccc(F)c2)cc1 [compound 123] | 1500
Cc1ccc(C(=O)c2ccccc2Cl)c(C)c1 [compound 135] | 1000
CCCCCCOc1ccc(C(=O)c2ccc(Cl)cc2)cc1 [compound 138] | 2500
CCCCCCCCc1ccc(C(=O)c2ccccc2Br)cc1 [compound 145] | 2000
CC(C)(C)c1ccc(C(=O)c2ccccc2F)cc1 [compound 120] | 750
CCCCCc1ccc(C(=O)c2ccccc2Cl)cc1 [compound 133] | 2000
CC(C)c1ccc(C(=O)c2ccccc2F)cc1 [compound 117] | 1500
CCCCc1ccc(C(=O)c2cccc(I)c2)cc1 [compound 160] | 2500

Compound | LD50 at 72 h [mg/kg]
CCCCCCCCc1ccc(C(=O)c2cccc(Cl)c2)cc1 [compound 141] | 2000
CCCCCCCCc1ccc(C(=O)c2ccccc2Cl)cc1 [compound 134] | 3000
CCCCCCCCc1ccc(C(=O)c2ccc(Br)cc2)cc1 [compound 151] | 2500
CCCCOc1ccc(C(=O)c2ccc(Cl)cc2)cc1 [compound 137] | 2000
Cc1ccc(C(=O)c2cccc(F)c2)c(C)c1 [compound 126] | 1000
Cc1ccc(C(=O)c2ccc(Br)cc2)c(C)c1 [compound 152] | 1500
CCCCCc1ccc(C(=O)c2cccc(F)c2)cc1 [compound 124] | 3000
CC(C)Cc1ccc(C(=O)c2ccccc2F)cc1 [compound 118] | 2000
Cc1ccc(C(=O)c2ccc(F)cc2)c(C)c1 [compound 130] | 2000
CCCCc1ccc(C(=O)c2ccccc2Br)cc1 [compound 143] | 1500
COc1ccc(C(=O)c2ccc(Cl)cc2)cc1 [compound 136] | 2000
Cc1cc(C)c(C(=O)c2ccccc2I)c(C)c1 [compound 159] | 1000
CCCCCCCCc1ccc(C(=O)c2cccc(Br)c2)cc1 [compound 148] | 2000
Cc1ccc(C(=O)c2ccccc2I)c(C)c1 [compound 158] | 2000
Cc1cc(C)c(C(=O)c2ccccc2Br)c(C)c1 [compound 147] | 1000
CCCCCc1ccc(C(=O)c2cccc(Cl)c2)cc1 [compound 140] | 1000
CCCc1ccc(C(=O)c2ccccc2Cl)cc1 [compound 132] | 2000
CCCc1ccc(C(=O)c2cccc(Cl)c2)cc1 [compound 139] | 1000
CCC(C)c1ccc(C(=O)c2ccccc2F)cc1 (stereo not shown) [compound 119] | 2000
CCCCCc1ccc(C(=O)c2ccccc2I)cc1 [compound 156] | > 10000
CCCCCc1ccc(C(=O)c2ccccc2Br)cc1 [compound 144] | 1500
COc1ccc(C(=O)c2ccccc2F)cc1 [compound 116] | 4000
CCCCc1ccc(C(=O)Cc2ccccc2)cc1 [compound 39] | > 10000
Cc1ccc(C(=O)c2cccc(I)c2)c(C)c1 [compound 162] | 1500
CCC(C)(C)c1ccc(C(=O)c2ccccc2F)cc1 [compound 122] | 2000
Cc1ccc(C(=O)c2ccc(I)cc2)c(C)c1 [compound 165] | 5000
Cc1ccc(C(=O)c2ccccc2Br)c(C)c1 [compound 146] | 1000

System: platelet aggregation
Test: blood platelet aggregation inhibition, collagen as inducer
Type: cell-based
Conditions: 10^-4 mole, rabbit PRP
From the text: Blood platelet aggregation inhibiting effect
Male rabbits (Japan original white strain 3.3 to 3.6 kg) were anesthetized with Thiopental sodium and blood was sampled from the carotid artery.

Compound | Blood platelet agg. inh. (percentage inhibition of platelet aggregation) [%]
CCCCOc1ccc(C(=O)c2c(C)cc(C)cc2C)cc1 [compound 94] | 27.9
CCCCCCc1ccc(C(=O)C(=O)c2ccccc2)cc1 [compound 56] | 20.3
Cc1cc(C)c(C(=O)c2ccc(O)cc2)c(C)c1 [compound 108] | 28.4
CCCc1ccc(C(=O)c2ccc(CCC)cc2)cc1 [compound 110] | 20.5
Cc1ccc(C(=O)Cc2ccccc2)cc1 [compound 48] | 20.5
Cc1cc(C)c(C)c(C(=O)c2ccccc2)c1C [compound 78] | 19.9
Cc1ccc(C(=O)c2c(C)cc(C)cc2C)cc1 [compound 86] | 28.3
COc1ccc(C(=O)Cc2ccc(Cl)cc2)cc1 [compound 60] | 4.0
CCCCc1ccc(C(=O)c2ccc(Cl)cc2)cc1 [compound 64] | 28.5
O=C(c1ccc(F)cc1)c1ccccc1Cl [compound 115] | 25.4
CCCCCCc1ccc(C(=O)c2ccc(C)cc2)cc1 [compound 36] | 15.1
CCCCCCCCCCCc1ccc(C(=O)c2ccccc2)cc1 [compound 71] | 19.5
CCCCCCCCCCc1ccc(C(=O)Cc2ccccc2)cc1 [compound 50] | 8.7
CCCCCCCCCCCCc1ccc(C(=O)Cc2ccccc2)cc1 [compound 52] | 6.8
CCCCOc1ccc(C(=O)c2ccc(CCCC)cc2)cc1 [compound 95] | 30.0
CCCc1ccc(C(=O)c2ccc(C)cc2C)cc1 [compound 96] | 28.5
CCCCCc1ccc(C(=O)c2ccc(CCCCC)cc2)cc1 [compound 111] | 10.3
CCOc1ccc(C(=O)c2ccccc2)cc1 [compound 81] | 18.3
Cc1ccc(C(=O)c2ccccc2)cc1 [compound 65] | 21.0
CCCCCCCCCCCCc1ccc(C(=O)c2ccccc2)cc1 [compound 69] | 13.5

Compound | Blood platelet agg. inh. (percentage inhibition of platelet aggregation) [%]
CCCc1ccc(C(=O)c2ccc(OC)cc2)cc1 [compound 93] | 24.4
CCCCCCCCc1ccc(C(=O)c2ccc(CCCC)cc2)cc1 [compound 101] | 27.9
CCc1ccc(CC)c(C(=O)c2ccccc2)c1 [compound 80] | 30.3
Cc1ccc(C(=O)c2ccc(C)cc2)cc1 [compound 83] | 27.6
CCCCCCCCCCCc1ccc(C(=O)Cc2ccccc2)cc1 [compound 51] | 9.5
CCCc1ccc(C(=O)c2cccc(C)c2)cc1 [compound 87] | 30.1
CCCCc1ccc(C(=O)c2cccc(C)c2)cc1 [compound 88] | 24.5
CCCCCOc1ccc(C(=O)Cc2ccccc2)cc1 [compound 59] | 25.6
O=C(c1ccccc1)c1ccc(O)cc1 [compound 109] | 13.7
CCCOc1ccc(C(=O)Cc2ccccc2)cc1 [compound 58] | 20.1
CCCc1ccc(C(=O)c2ccc(CC)cc2)cc1 [compound 112] | 11.8
CCCCCCCCCCc1ccc(C(=O)c2ccccc2)cc1 [compound 68] | 16.5
CCCc1ccc(C(=O)c2c(C)cc(C)cc2C)cc1 [compound 97] | 26.8
CCCCc1ccc(C(=O)Cc2ccccc2)cc1 [compound 39] | 2.6
CCCCc1ccc(CCCC)c(C(=O)c2ccccc2)c1 [compound 77] | 25.1
CCCCCCCc1ccc(C(=O)c2ccc(CCCC)cc2)cc1 [compound 100] | 22.4
CCc1ccc(C(=O)C(=O)c2ccccc2)cc1 [compound 55] | 23.3
CCCCCCCCCc1ccc(C(=O)c2ccc(CCCC)cc2)cc1 [compound 102] | 30.4
C=Cc1ccc(C(=O)c2ccccc2)cc1 [compound 82] | 20.5
